Experimental data: patent US20260207570A1, “OPTIMIZED DOSING OF LERIGLITAZONE” (MINORYX THERAPEUTICS S.L., priority 2022, published 2026)
Values joined by “and” are separate entries in the source; they are usually repeats but may differ in a detail not shown here. Equal entries are not always repeated.

Experiments:
[1] = Biliary clearance in sandwich-cultured hepatocytes; format: in vitro ADME; settings: sandwich-cultured hepatocytes
[2] = test system: sandwich-cultured hepatocytes; assay: Biliary clearance in sandwich-cultured hepatocytes; format: in vitro ADME; settings: after scaling up
CYP2C8 = biological target: T1, CYP2C8 (Homo sapiens, UniProt P10632); assay: Metabolism kinetics with recombinant CYP2C8; format: in vitro ADME; settings: therapeutic range, up to 30 μM initial incubation concentration
T1 sequence (P10632 1-490): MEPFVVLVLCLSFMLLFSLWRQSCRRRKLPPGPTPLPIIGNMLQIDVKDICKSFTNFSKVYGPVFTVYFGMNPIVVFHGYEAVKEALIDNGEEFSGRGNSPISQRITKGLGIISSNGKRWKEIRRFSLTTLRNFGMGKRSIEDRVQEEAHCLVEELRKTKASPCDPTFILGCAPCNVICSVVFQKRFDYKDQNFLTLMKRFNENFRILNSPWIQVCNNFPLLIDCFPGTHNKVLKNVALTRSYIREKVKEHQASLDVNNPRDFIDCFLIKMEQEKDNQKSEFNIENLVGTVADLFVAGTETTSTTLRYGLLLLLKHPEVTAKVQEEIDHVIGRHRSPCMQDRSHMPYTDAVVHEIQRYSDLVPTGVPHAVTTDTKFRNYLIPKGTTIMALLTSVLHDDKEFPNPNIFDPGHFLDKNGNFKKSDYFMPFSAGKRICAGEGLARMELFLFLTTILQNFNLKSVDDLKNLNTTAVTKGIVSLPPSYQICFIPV
Text: (§1) CYP2C8 and CYP3A4 were identified in vitro as the major contributing enzymes of leriglitazone with CYP2C8 mostly responsible for the formation of the main metabolite M3. Kinetic parameters of human CYP2C8 and CYP3A4 mediated metabolism of leriglitazone were studied in in vitro studies using recombinant CYP3A4 and CYP2C8 enzymes (ADMESCOPE, Finland). […] As the disappearance of leriglitazone was very slow especially at high initial concentrations, the accuracy of the fit was not as good as based on M3 formation. […] Thus, it was not possible to fit the kinetic parameters Km and Vmax.

[3] = Single dose neuro-pk study in rats; format: in vivo; settings: rat
Method: The ratio of unbound leriglitazone concentration in brain to unbound concentration in plasma (Kpu,u; Cb,u/Cp,u) was calculated dividing the unbound CSF Cmax by the unbound plasma Cmax. Fractions unbound in plasma (fu,p) to obtain the unbound Cmax values were already reported. Rodriguez-Pascau, L. et al., Sci. Transl. Med. 13, eabc0555 (2021).
In a single dose neuro-pk study in rats, at the efficacious dose of 17 mg/kg, the unbound brain concentration of leriglitazone was 175 ng/ml similar to the measured CSF concentration of 274 ng/ml (FIG. 7). Given the validity of CSF as a surrogate marker for brain unbound concentration was proven in rats, CSF levels of leriglitazone were measured in Phase 1 study and confirmed to be similar as in rodents. Unbound brain to plasma ratio (Kpu,u) of leriglitazone as a measure of brain distribution of free drug was 0.55 in humans and 0.25 in rats (Table 7).

[4] = Population pharmacokinetic model of studies MT-1-01, MT-2-01, MT-2-03; format: in vivo, human
Text: MT-1-01 (healthy volunteers), MT-2-01 (adult men with adrenomyeloneuropathy (AMN), MT-2-03 (men, women≥12 years with Friedreich's Ataxia).
A total of 2140 valid plasma concentration measurements from 130 individuals were used in the analysis. Full PK profiles were available only from MT-1-01. In MT-2-03 only pre-dose (trough) concentrations were taken at multiple visits, while in MT-2-01 also sparse post-dose samples were taken. Less than 1% of all samples were below the limit of quantification.
2. Structural model-development using only data from healthy volunteers (MT-1-01) and inclusion of key structural covariates (food, body weight).
3. Re-estimation of parameters on the full analysis dataset (MT-1-01, MT-2-01, MT-2-03). Finalization of base model.
4. Stepwise automatic covariate modeling (SCM) using the base model.
NONMEM v7.5 was used for the population modelling. The RxODE package (v0.9.2) for R (v4.0.2) was used for the simulations.
Automated stepwise covariate modeling (SCM) using a forward addition/backward deletion procedure as implemented in PsN, Karlsson and Savic, C/in Pharmacol Ther 82:17-20 (2008), was applied to the base model on the complete analysis dataset. To improve the computation time of the SCM, PsN generates a linearized form of the model applying a Taylor-transformation on which then the covariate function is applied. Anderson et al., Annu Rev Pharmacol Toxicol 48:303-332 (2008). The final model from the SCM procedure was then rerun in its original, untransformed form.
The following covariates were tested in the model for their association with CL and relative bioavailability (F): • BMI • Height • Age • Ethnicity (Hispanic yes/no) • Sex

CYP3A4 = CYP3A4 (Homo sapiens, UniProt P08684); assay: Metabolism kinetics with recombinant CYP3A4; format: in vitro ADME; set-up: purchased ADMESCOPE, Finland; settings: used initial concentrations; Km and Vmax could not be fitted
Text: as §1

Sequence of CYP3A4 (P08684 whole entry): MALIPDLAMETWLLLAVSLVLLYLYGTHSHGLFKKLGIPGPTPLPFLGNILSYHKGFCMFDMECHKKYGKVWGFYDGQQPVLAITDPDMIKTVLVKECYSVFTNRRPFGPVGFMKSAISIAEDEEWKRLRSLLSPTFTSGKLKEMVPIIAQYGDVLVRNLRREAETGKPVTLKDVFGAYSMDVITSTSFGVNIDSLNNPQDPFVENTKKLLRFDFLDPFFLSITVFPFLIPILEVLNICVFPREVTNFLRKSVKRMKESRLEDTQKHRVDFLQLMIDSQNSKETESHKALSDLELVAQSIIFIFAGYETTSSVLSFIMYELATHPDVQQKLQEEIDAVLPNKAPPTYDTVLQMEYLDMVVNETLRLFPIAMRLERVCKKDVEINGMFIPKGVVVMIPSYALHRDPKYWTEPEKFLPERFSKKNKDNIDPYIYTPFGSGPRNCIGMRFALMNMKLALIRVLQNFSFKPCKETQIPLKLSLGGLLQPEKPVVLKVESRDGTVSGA

CC(O)c1ccc(CCOc2ccc(CC3SC(=O)NC3=O)cc2)nc1 (centres unmarked) [Leriglitazone, 5-[[4-[2-[5-(1-hydroxyethyl)pyridin-2-yl]ethoxy]phenyl]methyl]-1,3-thiazolidine-2,4-dione]
hepatocyte CLint [1]: 0.358 µL/min/1e6 cells | microsomal CLint [1]: 0.5 µL/min/mg | biliary clearance as fraction of total clearance (feBIL) [2]: 19.5% | contribution of CYP2C8, fraction metabolized (CYP2C8): around 70% | Kp ([3]; CSF and plasma (unbound), 17 mg/kg, unbound CSF Cmax / unbound plasma Cmax, read-out: Kpu, u based on CSF): 0.25 | AUC ([3]; plasma, 17 mg/kg single dose, read-out: Total plasma AUC): 102 µg·h/mL | Cmax ([3]; plasma, 17 mg/kg single dose, read-out: Total plasma Cmax): 21100 ng/mL | CSF Cmax ([3]; 17 mg/kg single dose): 274 ng/mL | Total brain AUC ([3]; 17 mg/kg single dose): 6.582 µg·h/mL | Total brain Cmax ([3]; 17 mg/kg single dose): 1337.6 ng/mL | Kpu, u based on CSF ([3]; 17 mg/kg, unbound CSF Cmax / unbound plasma Cmax): 0,25 | unbound brain concentration ([3]; efficacious dose of 17 mg/kg, single dose): 175 ng/mL | lower CL in women ([4]; popPK covariate sex): 14.7% | reduction of absorption rate when taken with food ([4]; popPK estimate): 82.9% | reduction of bioavailability by food ([4]; popPK estimate): 4.8% and < 5% | typical rate of absorption ([4]; taken without food, popPK estimate): 5.2 h⁻¹ | saturation of metabolism by recombinant CYP3A4 (CYP3A4): did not saturate
